The values that follow come from patent publication US20220251141A1, “IMMUNOMODULATORS” (Bristol-Myers Squibb Company, priority 2019, published 2022).

Numbered stars: 1 amine (or outer) side, 2 acyl side, 3 side chain; on linkers, the order of the positions; unused ones are H or OH. Bridge positions count the residues as written; N and C are the ends. Square brackets hold non-standard residues; d marks the D form. Side chains are listed from the residue outwards. Peptide text beside a SMILES is read from it. * marks the point of attachment. Trp(1-CH2CO2Me) = COC(=O)Cn1cc(C[C@H](N)C(=O)O)c2ccccc21; Trp(1-CH2COOH) = N[C@@H](Cc1cn(CC(=O)O)c2ccccc12)C(=O)O; X4 = CN(C)S(=O)(=O)NC[C@H](N[*:1])C(=O)[*:2]; Trp(1-Me) = Cn1cc(C[C@H](N)C(=O)O)c2ccccc21; Phe(4-F) = N[C@@H](Cc1ccc(F)cc1)C(=O)O; Hyp = O=C(O)[C@@H]1C[C@@H](O)CN1; Myristoyl = CCCCCCCCCCCCCC(=O)*; NMeNle = CCCC[C@H](NC)C(=O)O; NMeC = CN[C@@H](CS)C(=O)O; Pip = O=C(O)[C@@H]1CCCCN1; NMeA = CN[C@@H](C)C(=O)O; X7 = COc1ccc(CN*)c(OC)c1; Dab = NCC[C@H](N)C(=O)O; Dap = NC[C@H](N)C(=O)O; NH(heptyl) = CCCCCCCN*; CO = O=C([*:1])[*:2]; Piv = CC(C)(C)C(=O)*

The assay deals with T1, PD-1/PD-L1 (Homo sapiens, UniProt Q9NZQ7).
T1 construct: TVMV protease site linker (C); made in house; host or cells: HEK293T cells
The assay is described as follows: PD-1/PD-L1 Homogenous Time-Resolved Fluorescence (HTRF) binding assay. To be noted: PD-L1-His 10 nM final, PD-1-Ig 20 nM final; inhibitors pre-incubated with PD-L1-His for 15 m. The gist of the method:
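Compounds pre-incubated 15 min with human PD-L1(18-239)-His (10 nM final), then PD-1(25-167)-Ig (20 nM final) added for 15 min, in dPBS with 0.1% BSA and 0.05% Tween-20. Eu-cryptate anti-Ig (1 nM) and APC anti-His (20 nM) added, 30 min equilibration, 665/620 nm ratio read; IC50 reported.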
A general note: TR-FRET usually uses a lanthanide donor and a delayed reading to cut background.
Regarding `CCCCCCCNC(=O)NCC[C@@H]1NC(=O)[C@H](Cc2c[nH]c3ccccc23)NC(=O)[C@@H]2C[C@@H](O)CN2C(=O)[C@H](CC(C)C)NC(=O)[C@H](CNC(=O)NCCCCCCC)NC(=O)[C@@H]2CCCN2C(=O)[C@H](CC(N)=O)NC(=O)[C@H](C)N(C)C(=O)[C@H](Cc2ccc(O)cc2)NC(=O)CSC[C@@H](C(=O)NCC(N)=O)NC(=O)[C@H](CC(C)C)NC(=O)[C@H](CCCC)N(C)C(=O)[C@H](CCCC)N(C)C(=O)[C@H](Cc2cn(CC(=O)O)c3ccccc23)NC1=O` [Example 1035] ({CH2CO}-Y[NMeA]NP[Dap]([CO-NH(heptyl)])L[Hyp]W[Dab]([CO-NH(heptyl)])[Trp(1-CH2COOH)][NMeNle][NMeNle]LCG-NH2; thioether N-14), the half-inhibitory concentration (IC50) amounted to 8.3 nM. The result for `CCCC[C@H]1C(=O)N(C)[C@@H](CCCC)C(=O)N[C@@H](CCC(=O)O)C(=O)N[C@H](C(N)=O)CSCC(=O)N[C@@H](Cc2ccc(F)cc2)C(=O)N2CCCC[C@H]2C(=O)N[C@@H](CC(N)=O)C(=O)N2CCC[C@H]2C(=O)N[C@@H](CNC(=O)C(C)(C)C)C(=O)N[C@@H](CC(C)C)C(=O)N2C[C@H](O)C[C@H]2C(=O)N[C@@H](Cc2c[nH]c3ccccc23)C(=O)N[C@@H](CCNC(=O)C(C)(C)C)C(=O)N[C@@H](Cc2cn(C)c3ccccc23)C(=O)N1C` [Example 20230] ({CH2CO}-[Phe(4-F)][Pip]NP[Dap](Piv)L[Hyp]W[Dab](Piv)[Trp(1-Me)][NMeNle][NMeNle]EC-NH2; thioether N-14) reads 16.6 nM; that for `CCCC[C@H]1C(=O)N(C)[C@@H](CCCC)C(=O)N[C@@H](CC(C)C)C(=O)N[C@H](C(=O)NCC(N)=O)CSCC(=O)N[C@@H](Cc2ccc(O)cc2)C(=O)N(C)[C@@H](C)C(=O)N[C@@H](CC(N)=O)C(=O)N2CCC[C@H]2C(=O)N[C@@H](CNS(=O)(=O)N(C)C)C(=O)N[C@@H](CC(C)C)C(=O)N2C[C@H](O)C[C@H]2C(=O)N[C@@H](Cc2c[nH]c3ccccc23)C(=O)N[C@@H](CCN)C(=O)N[C@@H](Cc2cn(CC(=O)O)c3ccccc23)C(=O)N1C` [Example 1023] ({CH2CO}-Y[NMeA]NP[X4]L[Hyp]W[Dab][Trp(1-CH2COOH)][NMeNle][NMeNle]LCG-NH2; thioether N-14), 6.8 nM; that for `CCCC[C@H]1C(=O)N(C)[C@@H](CCCC)C(=O)N[C@@H](CC(C)C)C(=O)N[C@H](C(=O)NCC(N)=O)CSCC(=O)N[C@@H](Cc2ccc(O)cc2)C(=O)N(C)[C@@H](C)C(=O)N[C@@H](CC(N)=O)C(=O)N2CCC[C@H]2C(=O)N[C@@H](CNC(=O)NCC)C(=O)N[C@@H](CC(C)C)C(=O)N2C[C@H](O)C[C@H]2C(=O)N[C@@H](Cc2c[nH]c3ccccc23)C(=O)N[C@@H](CCNC(=O)NCC)C(=O)N[C@@H](Cc2cn(CC(=O)O)c3ccccc23)C(=O)N1C` [Example 1029] ({CH2CO}-Y[NMeA]NP[Dap]([CO-NHEt])L[Hyp]W[Dab]([CO-NHEt])[Trp(1-CH2COOH)][NMeNle][NMeNle]LCG-NH2; thioether N-14), 4.9 nM. The same measure for `CCCC[C@H]1C(=O)N(C)[C@@H](CCCC)C(=O)N[C@@H](CC(C)C)C(=O)N(C)[C@H](C(N)=O)CSCC(=O)N[C@@H](Cc2ccc(F)cc2)C(=O)N2CCCC[C@H]2C(=O)N[C@@H](CC(=O)N(C)C)C(=O)N2CCC[C@H]2C(=O)N[C@@H](Cc2c[nH]cn2)C(=O)N[C@@H](CC(C)C)C(=O)N2C[C@H](O)C[C@H]2C(=O)N[C@@H](Cc2c[nH]c3ccccc23)C(=O)N[C@@H](CO)C(=O)N[C@@H](Cc2cn(CC(=O)O)c3ccccc23)C(=O)N1C` [Example 10002] ({CH2CO}-[Phe(4-F)][Pip]D(NMe2)PHL[Hyp]WS[Trp(1-CH2COOH)][NMeNle][NMeNle]L[NMeC]-NH2; thioether N-14): 52 nM; for `CCCC[C@H]1C(=O)N(C)[C@@H](CCCC)C(=O)N[C@@H](CC(C)C)C(=O)N[C@H](C(N)=O)CSCC(=O)N[C@@H](Cc2ccc(F)cc2)C(=O)N2CCCC[C@H]2C(=O)N[C@@H](CC(N)=O)C(=O)N2CCC[C@H]2C(=O)N[C@@H](CNC(=O)C(C)(C)C)C(=O)N[C@@H](CC(C)C)C(=O)N2C[C@H](O)C[C@H]2C(=O)N[C@@H](Cc2c[nH]c3ccccc23)C(=O)N[C@@H](CCNC(=O)C(C)(C)C)C(=O)N[C@@H](Cc2cn(C)c3ccccc23)C(=O)N1C` [Example 20280] ({CH2CO}-[Phe(4-F)][Pip]NP[Dap](Piv)L[Hyp]W[Dab](Piv)[Trp(1-Me)][NMeNle][NMeNle]LC-NH2; thioether N-14): 50.3 nM; for `CCCC[C@H]1C(=O)N(C)[C@@H](CCCC)C(=O)N[C@@H](CCC(=O)O)C(=O)N[C@H](C(N)=O)CSCC(=O)N[C@@H](Cc2ccc(F)cc2)C(=O)N2CCCC[C@H]2C(=O)N[C@@H](CC(=O)O)C(=O)N2CCC[C@H]2C(=O)N[C@@H](CNC(=O)C(C)(C)C)C(=O)N[C@@H](CC(C)C)C(=O)N2C[C@H](O)C[C@H]2C(=O)N[C@@H](Cc2c[nH]c3ccccc23)C(=O)N[C@@H](CCNC(=O)C(C)(C)C)C(=O)N[C@@H](Cc2cn(C)c3ccccc23)C(=O)N1C` [Example 20290] ({CH2CO}-[Phe(4-F)][Pip]DP[Dap](Piv)L[Hyp]W[Dab](Piv)[Trp(1-Me)][NMeNle][NMeNle]EC-NH2; thioether N-14): 70.1 nM. The same measure for `CCCC[C@H]1C(=O)N(C)[C@@H](CCCC)C(=O)N[C@@H](CC(C)C)C(=O)N[C@H](C(=O)NCC(N)=O)CSCC(=O)N[C@@H](Cc2ccc(O)cc2)C(=O)N(C)[C@@H](C)C(=O)N[C@@H](CC(N)=O)C(=O)N2CCC[C@H]2C(=O)N[C@@H](CNC(=O)NCc2ccc(OC)cc2OC)C(=O)N[C@@H](CC(C)C)C(=O)N2C[C@H](O)C[C@H]2C(=O)N[C@@H](Cc2c[nH]c3ccccc23)C(=O)N[C@@H](CCN)C(=O)N[C@@H](Cc2cn(CC(=O)O)c3ccccc23)C(=O)N1C` [Example 1043] ({CH2CO}-Y[NMeA]NP[Dap]([CO-X7])L[Hyp]W[Dab][Trp(1-CH2COOH)][NMeNle][NMeNle]LCG-NH2; thioether N-14): 3 nM.

Compound `CCCCCCCCCCCCCC(=O)NCC[C@@H]1NC(=O)[C@H](Cc2c[nH]c3ccccc23)NC(=O)[C@@H]2C[C@@H](O)CN2C(=O)[C@H](CC(C)C)NC(=O)[C@H](CNC(=O)CCCCCCCCCCCCC)NC(=O)[C@@H]2CCCN2C(=O)[C@H](CC(N)=O)NC(=O)[C@H](C)N(C)C(=O)[C@H](Cc2ccc(O)cc2)NC(=O)CSC[C@@H](C(=O)NCC(N)=O)NC(=O)[C@H](CC(C)C)NC(=O)[C@H](CCCC)N(C)C(=O)[C@H](CCCC)N(C)C(=O)[C@H](Cc2cn(CC(=O)OC)c3ccccc23)NC1=O` [Example 1005] ({CH2CO}-Y[NMeA]NP[Dap](Myristoyl)L[Hyp]W[Dab](Myristoyl)[Trp(1-CH2CO2Me)][NMeNle][NMeNle]LCG-NH2; thioether N-14) registered an IC50 of over 10000 nM. The result for `CCCCCCCNC(=O)NCC[C@@H]1NC(=O)[C@H](Cc2c[nH]c3ccccc23)NC(=O)[C@@H]2C[C@@H](O)CN2C(=O)[C@H](CC(C)C)NC(=O)[C@H](CNC(=O)NCCCCCCC)NC(=O)[C@@H]2CCCN2C(=O)[C@H](CC(N)=O)NC(=O)[C@H](C)N(C)C(=O)[C@H](Cc2ccc(O)cc2)NC(=O)CSC[C@@H](C(=O)NCC(N)=O)NC(=O)[C@H](CC(C)C)NC(=O)[C@H](CCCC)N(C)C(=O)[C@H](CCCC)N(C)C(=O)[C@H](Cc2cn(CC(=O)O)c3ccccc23)NC1=O` [Example 1033] ({CH2CO}-Y[NMeA]NP[Dap]([CO-NH(heptyl)])L[Hyp]W[Dab]([CO-NH(heptyl)])[Trp(1-CH2COOH)][NMeNle][NMeNle]LCG-NH2; thioether N-14) reads 7.6 nM.

For orientation: IC50 means the concentration needed to halve the response being measured. Read a high IC50 as lower potency.
